Laboratory results reported in the kinase profiling compilation of Christmann-Franck et al. (2016).

Assays:
Assay in all cases: radiometric filter-binding kinase assay, Kinase HotSpot
Conditions in all cases: compound 0.5 µM; ATP 10 µM
[1] = molecular target: ACVRL1 (human) (UniProt P37023)
[2] = molecular target: AKT1 (human) (UniProt P31749)
[3] = molecular target: AURKB (human) (UniProt Q96GD4)
[4] = molecular target: BRSK1 (human) (UniProt Q8TDC3)
[5] = molecular target: CDC42BPB (human) (UniProt Q9Y5S2)
[6] = molecular target: CDK2 CCNA2 (human) (UniProt P24941+P20248)
[7] = molecular target: CDK9 CCNT1 (human) (UniProt P50750+O60563)
[8] = molecular target: CLK4 (human) (UniProt Q9HAZ1)
[9] = molecular target: CSNK1A1 (human) (UniProt P48729)
[10] = molecular target: CSNK1G1 (human) (UniProt Q9HCP0)
[11] = molecular target: CSNK2A1 (human) (UniProt P68400)
[12] = molecular target: EPHA2 (human) (UniProt P29317)
[13] = molecular target: EPHA7 (human) (UniProt Q15375)
[14] = molecular target: EPHB2 (human) (UniProt P29323)
[15] = molecular target: FYN (human) (UniProt P06241)
[16] = molecular target: GSG2 (human) (UniProt Q8TF76)
[17] = molecular target: GSK3B (human) (UniProt P49841)
[18] = molecular target: IKBKB (human) (UniProt O14920)
[19] = molecular target: LIMK1 (human) (UniProt P53667)
[20] = molecular target: LRRK2 (human) (UniProt Q5S007)
[21] = molecular target: MAP4K5 (human) (UniProt Q9Y4K4)
[22] = molecular target: MARK2 (human) (UniProt Q7KZI7)
[23] = molecular target: MATK (human) (UniProt P42679)
[24] = molecular target: MERTK (human) (UniProt Q12866)
[25] = molecular target: MET (human) (UniProt P08581)
[26] = molecular target: MST4 (human) (UniProt Q9P289)
[27] = molecular target: MUSK (human) (UniProt O15146)
[28] = molecular target: NEK4 (human) (UniProt P51957)
[29] = molecular target: NTRK1 (human) (UniProt P04629)
[30] = molecular target: PAK1 (human) (UniProt Q13153)
[31] = molecular target: PAK4 (human) (UniProt O96013)
[32] = molecular target: PAK6 (human) (UniProt Q9NQU5)
[33] = molecular target: PLK1 (human) (UniProt P53350)
[34] = molecular target: PNCK (human) (UniProt Q6P2M8)
[35] = molecular target: PRKCI (human) (UniProt P41743)
[36] = molecular target: PRKX (human) (UniProt P51817)
[37] = molecular target: RPS6KB2 (human) (UniProt Q9UBS0)
[38] = molecular target: STK39 (human) (UniProt Q9UEW8)
[39] = molecular target: TAOK3 (human) (UniProt Q9H2K8)
[40] = molecular target: TBK1 (human) (UniProt Q9UHD2)
[41] = molecular target: TNK2 (human) (UniProt Q07912)
[42] = molecular target: WNK2 (human) (UniProt Q9Y3S1)
Chain of WNK2 (human) (Q9Y3S1 whole entry, looked up): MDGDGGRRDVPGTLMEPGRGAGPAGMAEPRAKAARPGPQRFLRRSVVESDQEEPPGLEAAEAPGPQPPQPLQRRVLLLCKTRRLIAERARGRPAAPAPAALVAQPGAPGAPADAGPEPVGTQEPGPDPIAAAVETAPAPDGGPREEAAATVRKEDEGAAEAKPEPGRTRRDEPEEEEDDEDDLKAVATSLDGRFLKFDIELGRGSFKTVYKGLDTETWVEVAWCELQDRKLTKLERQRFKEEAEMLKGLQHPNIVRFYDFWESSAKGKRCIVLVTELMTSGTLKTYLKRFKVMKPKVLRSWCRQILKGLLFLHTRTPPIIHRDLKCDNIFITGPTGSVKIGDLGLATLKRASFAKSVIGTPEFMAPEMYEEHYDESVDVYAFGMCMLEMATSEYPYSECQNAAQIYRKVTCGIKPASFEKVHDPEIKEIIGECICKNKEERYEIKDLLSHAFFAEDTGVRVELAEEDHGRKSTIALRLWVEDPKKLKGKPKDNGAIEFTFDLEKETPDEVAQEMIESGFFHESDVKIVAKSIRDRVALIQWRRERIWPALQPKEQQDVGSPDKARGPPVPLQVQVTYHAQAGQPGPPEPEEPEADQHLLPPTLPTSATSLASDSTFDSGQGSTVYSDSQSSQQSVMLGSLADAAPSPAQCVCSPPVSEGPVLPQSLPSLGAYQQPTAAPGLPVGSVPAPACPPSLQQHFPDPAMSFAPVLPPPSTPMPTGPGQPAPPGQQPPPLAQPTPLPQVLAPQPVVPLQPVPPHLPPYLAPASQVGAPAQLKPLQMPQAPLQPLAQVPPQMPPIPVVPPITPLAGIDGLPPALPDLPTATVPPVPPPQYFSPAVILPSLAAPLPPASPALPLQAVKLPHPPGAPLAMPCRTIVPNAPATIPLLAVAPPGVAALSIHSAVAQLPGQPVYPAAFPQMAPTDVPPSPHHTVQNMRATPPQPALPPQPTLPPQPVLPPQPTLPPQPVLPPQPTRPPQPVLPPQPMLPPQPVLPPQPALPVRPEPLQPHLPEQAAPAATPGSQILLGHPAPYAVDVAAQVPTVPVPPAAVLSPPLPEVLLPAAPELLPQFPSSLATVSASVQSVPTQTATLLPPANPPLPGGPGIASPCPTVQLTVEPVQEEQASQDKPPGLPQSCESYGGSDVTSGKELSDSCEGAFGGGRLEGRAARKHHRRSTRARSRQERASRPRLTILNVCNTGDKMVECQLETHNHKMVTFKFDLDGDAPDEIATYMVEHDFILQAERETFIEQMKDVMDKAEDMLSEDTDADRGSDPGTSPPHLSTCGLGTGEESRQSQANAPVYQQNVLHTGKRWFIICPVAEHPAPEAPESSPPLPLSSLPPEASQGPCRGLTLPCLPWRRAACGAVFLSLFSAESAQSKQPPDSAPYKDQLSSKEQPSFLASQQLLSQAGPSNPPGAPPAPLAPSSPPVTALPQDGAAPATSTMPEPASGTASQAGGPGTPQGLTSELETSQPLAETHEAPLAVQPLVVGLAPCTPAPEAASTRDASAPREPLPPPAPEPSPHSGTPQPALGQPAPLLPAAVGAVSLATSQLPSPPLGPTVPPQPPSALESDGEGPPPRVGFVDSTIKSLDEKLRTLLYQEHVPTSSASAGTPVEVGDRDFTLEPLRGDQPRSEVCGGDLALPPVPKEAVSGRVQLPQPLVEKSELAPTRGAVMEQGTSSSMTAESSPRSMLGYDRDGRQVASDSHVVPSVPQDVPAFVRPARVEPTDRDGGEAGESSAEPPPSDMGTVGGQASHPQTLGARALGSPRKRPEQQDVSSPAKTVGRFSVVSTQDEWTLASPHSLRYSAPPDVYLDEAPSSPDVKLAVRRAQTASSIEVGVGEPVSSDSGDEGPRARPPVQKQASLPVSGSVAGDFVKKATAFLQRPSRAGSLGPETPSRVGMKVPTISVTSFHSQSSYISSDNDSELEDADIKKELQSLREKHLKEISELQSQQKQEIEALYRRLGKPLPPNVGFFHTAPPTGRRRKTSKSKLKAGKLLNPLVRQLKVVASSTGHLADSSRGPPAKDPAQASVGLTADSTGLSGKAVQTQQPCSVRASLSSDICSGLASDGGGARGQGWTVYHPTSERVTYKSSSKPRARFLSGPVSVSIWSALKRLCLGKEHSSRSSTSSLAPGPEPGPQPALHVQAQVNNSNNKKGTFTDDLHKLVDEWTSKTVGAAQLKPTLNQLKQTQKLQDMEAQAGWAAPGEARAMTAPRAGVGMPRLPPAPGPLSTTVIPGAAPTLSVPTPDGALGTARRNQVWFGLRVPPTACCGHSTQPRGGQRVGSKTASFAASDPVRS

Chain of TBK1 (human) (Q9UHD2 whole entry, looked up): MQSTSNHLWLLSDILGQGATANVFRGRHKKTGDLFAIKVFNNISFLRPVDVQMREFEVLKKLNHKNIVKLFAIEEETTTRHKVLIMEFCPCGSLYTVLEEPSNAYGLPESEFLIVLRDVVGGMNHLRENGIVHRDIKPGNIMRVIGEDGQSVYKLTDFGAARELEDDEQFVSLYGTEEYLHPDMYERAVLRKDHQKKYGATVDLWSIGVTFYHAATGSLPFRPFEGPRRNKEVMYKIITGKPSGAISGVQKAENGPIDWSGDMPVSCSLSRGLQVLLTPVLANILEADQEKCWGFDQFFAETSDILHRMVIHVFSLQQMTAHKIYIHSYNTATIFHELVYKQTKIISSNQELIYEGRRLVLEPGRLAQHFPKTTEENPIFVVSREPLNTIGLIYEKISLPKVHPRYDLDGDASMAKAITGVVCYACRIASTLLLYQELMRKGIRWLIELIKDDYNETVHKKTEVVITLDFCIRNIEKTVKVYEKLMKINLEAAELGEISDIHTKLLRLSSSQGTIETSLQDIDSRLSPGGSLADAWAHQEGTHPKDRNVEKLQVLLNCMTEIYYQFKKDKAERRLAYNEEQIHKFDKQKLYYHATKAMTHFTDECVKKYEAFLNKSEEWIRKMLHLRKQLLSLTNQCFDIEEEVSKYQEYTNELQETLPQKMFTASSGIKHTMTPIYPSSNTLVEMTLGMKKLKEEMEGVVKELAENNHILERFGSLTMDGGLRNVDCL
Chain of RPS6KB2 (human) (Q9UBS0 whole entry, looked up): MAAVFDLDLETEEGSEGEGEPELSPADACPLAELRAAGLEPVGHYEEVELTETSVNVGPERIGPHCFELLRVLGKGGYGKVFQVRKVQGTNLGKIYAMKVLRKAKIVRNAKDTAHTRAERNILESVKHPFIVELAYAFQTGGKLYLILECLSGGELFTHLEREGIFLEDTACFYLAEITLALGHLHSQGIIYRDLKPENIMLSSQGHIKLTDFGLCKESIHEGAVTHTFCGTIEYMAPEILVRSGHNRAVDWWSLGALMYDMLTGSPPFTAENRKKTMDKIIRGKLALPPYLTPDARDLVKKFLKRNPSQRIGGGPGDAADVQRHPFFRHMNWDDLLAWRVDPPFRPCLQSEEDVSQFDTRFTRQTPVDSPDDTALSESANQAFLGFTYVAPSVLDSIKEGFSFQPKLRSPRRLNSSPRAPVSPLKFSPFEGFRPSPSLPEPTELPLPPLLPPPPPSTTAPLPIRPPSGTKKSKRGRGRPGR
Chain of MARK2 (human) (Q7KZI7 whole entry, looked up): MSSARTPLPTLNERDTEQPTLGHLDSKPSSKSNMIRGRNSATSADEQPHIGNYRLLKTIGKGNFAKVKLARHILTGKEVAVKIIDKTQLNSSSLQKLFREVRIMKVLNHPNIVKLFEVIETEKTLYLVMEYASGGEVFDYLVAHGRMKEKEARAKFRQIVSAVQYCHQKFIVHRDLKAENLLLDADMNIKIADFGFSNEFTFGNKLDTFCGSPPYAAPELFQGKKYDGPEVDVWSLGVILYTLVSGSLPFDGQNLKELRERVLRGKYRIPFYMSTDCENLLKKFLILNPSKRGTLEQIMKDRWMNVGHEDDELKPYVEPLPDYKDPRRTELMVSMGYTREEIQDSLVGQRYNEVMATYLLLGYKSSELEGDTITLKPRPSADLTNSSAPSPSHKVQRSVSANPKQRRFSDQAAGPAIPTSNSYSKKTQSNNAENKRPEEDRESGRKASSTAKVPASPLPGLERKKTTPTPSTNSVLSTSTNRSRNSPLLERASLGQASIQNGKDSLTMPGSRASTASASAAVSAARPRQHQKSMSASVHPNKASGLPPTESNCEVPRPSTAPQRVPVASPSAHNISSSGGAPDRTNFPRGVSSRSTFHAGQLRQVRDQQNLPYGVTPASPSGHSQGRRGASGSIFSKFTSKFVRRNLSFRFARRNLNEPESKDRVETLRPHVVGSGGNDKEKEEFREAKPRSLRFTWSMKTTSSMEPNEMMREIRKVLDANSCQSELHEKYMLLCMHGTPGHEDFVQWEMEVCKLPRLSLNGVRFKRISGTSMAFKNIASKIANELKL
Chain of MST4 (human) (Q9P289 whole entry, looked up): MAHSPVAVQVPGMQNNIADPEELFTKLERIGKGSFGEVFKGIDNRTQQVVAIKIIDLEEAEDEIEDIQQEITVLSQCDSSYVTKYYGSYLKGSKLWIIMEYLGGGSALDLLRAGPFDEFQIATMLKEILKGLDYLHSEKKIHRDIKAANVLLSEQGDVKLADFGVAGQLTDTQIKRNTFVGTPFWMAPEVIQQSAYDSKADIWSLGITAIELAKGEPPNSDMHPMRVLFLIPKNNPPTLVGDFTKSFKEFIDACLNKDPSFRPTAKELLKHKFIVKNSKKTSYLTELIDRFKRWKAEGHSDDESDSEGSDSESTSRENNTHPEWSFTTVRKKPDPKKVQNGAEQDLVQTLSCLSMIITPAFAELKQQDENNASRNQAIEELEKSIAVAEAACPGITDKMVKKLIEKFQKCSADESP
Chain of AURKB (human) (Q96GD4 whole entry, looked up): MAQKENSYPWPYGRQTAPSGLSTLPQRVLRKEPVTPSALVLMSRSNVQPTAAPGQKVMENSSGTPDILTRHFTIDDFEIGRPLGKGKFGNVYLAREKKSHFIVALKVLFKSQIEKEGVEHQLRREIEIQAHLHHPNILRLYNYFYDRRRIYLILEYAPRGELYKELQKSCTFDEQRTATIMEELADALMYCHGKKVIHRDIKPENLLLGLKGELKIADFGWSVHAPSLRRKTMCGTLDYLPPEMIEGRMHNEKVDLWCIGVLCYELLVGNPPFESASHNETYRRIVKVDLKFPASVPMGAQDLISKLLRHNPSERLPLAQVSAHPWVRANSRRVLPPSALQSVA

SMILES: c1ccc(-c2cnc(Nc3ccc(OCCN4CCCC4)cc3)s2)cc1
- residual activity [1]: 108%
- residual activity [2]: 101%
- residual activity [3]: 75.8%
- residual activity [4]: 97.6%
- residual activity [5]: 96.7%
- residual activity [6]: 85.2%
- residual activity [7]: 66.1%
- residual activity [8]: 97.9%
- residual activity [9]: 86.7%
- residual activity [10]: 94.7%
- residual activity [11]: 90.7%
- residual activity [12]: 108%
- residual activity [13]: 98%
- residual activity [14]: 75.6%
- residual activity [15]: 81.1%
- residual activity [16]: 106%
- residual activity [17]: 100%
- residual activity [18]: 98.1%
- residual activity [19]: 66.9%
- residual activity [20]: 95.8%
- residual activity [21]: 72.5%
- residual activity [22]: 88%
- residual activity [23]: 94.3%
- residual activity [24]: 87.8%
- residual activity [25]: 89.7%
- residual activity [26]: 101%
- residual activity [27]: 84.2%
- residual activity [28]: 96.1%
- residual activity [29]: 54.1%
- residual activity [30]: 97%
- residual activity [31]: 106%
- residual activity [32]: 101%
- residual activity [33]: 101%
- residual activity [34]: 99.8%
- residual activity [35]: 93.1%
- residual activity [36]: 101%
- residual activity [37]: 92.7%
- residual activity [38]: 75.4%
- residual activity [39]: 87.4%
- residual activity [40]: 87.1%
- residual activity [41]: 66.6%
- residual activity [42]: 119%

SMILES: COc1cc2c(N3CCN(C(=O)Nc4ccc(OC(C)C)cc4)CC3)ncnc2cc1OCCCN1CCCCC1
- residual activity [1]: 102%
- residual activity [2]: 102%
- residual activity [3]: 89.6%
- residual activity [4]: 103%
- residual activity [5]: 100%
- residual activity [6]: 93.3%
- residual activity [7]: 100%
- residual activity [8]: 88.7%
- residual activity [9]: 101%
- residual activity [10]: 98%
- residual activity [11]: 102%
- residual activity [12]: 102%
- residual activity [13]: 97.5%
- residual activity [14]: 97.6%
- residual activity [15]: 94.8%
- residual activity [16]: 99.5%
- residual activity [17]: 98.1%
- residual activity [18]: 97.3%
- residual activity [19]: 88.6%
- residual activity [20]: 123%
- residual activity [21]: 87.6%
- residual activity [22]: 109%
- residual activity [23]: 79.4%
- residual activity [24]: 106%
- residual activity [25]: 92.5%
- residual activity [26]: 101%
- residual activity [27]: 99.6%
- residual activity [28]: 90.3%
- residual activity [29]: 48.1%
- residual activity [30]: 107%
- residual activity [31]: 103%
- residual activity [32]: 101%
- residual activity [33]: 101%
- residual activity [34]: 97.7%
- residual activity [35]: 96.2%
- residual activity [36]: 108%
- residual activity [37]: 102%
- residual activity [38]: 93.2%
- residual activity [39]: 96.8%
- residual activity [40]: 97.2%
- residual activity [41]: 92.7%
- residual activity [42]: 97.4%

SMILES: CCOc1cc2ncnc(Nc3cccc(Br)c3)c2cc1OCC
- residual activity [1]: 103%
- residual activity [2]: 112%
- residual activity [3]: 91.9%
- residual activity [4]: 86.1%
- residual activity [5]: 107%
- residual activity [6]: 91.9%
- residual activity [7]: 98.5%
- residual activity [8]: 83.1%
- residual activity [9]: 98.6%
- residual activity [10]: 107%
- residual activity [11]: 95.9%
- residual activity [12]: 80.3%
- residual activity [13]: 58.5%
- residual activity [14]: 77%
- residual activity [15]: 78.9%
- residual activity [16]: 90.6%
- residual activity [17]: 96.8%
- residual activity [18]: 102%
- residual activity [19]: 101%
- residual activity [20]: 78.7%
- residual activity [21]: 47.7%
- residual activity [22]: 94.5%
- residual activity [23]: 90.5%
- residual activity [24]: 87.1%
- residual activity [25]: 78.6%
- residual activity [26]: 94.9%
- residual activity [27]: 92.6%
- residual activity [28]: 84.8%
- residual activity [29]: 89.6%
- residual activity [30]: 95.2%
- residual activity [31]: 115%
- residual activity [32]: 119%
- residual activity [33]: 93.6%
- residual activity [34]: 103%
- residual activity [35]: 100%
- residual activity [36]: 99.8%
- residual activity [37]: 102%
- residual activity [38]: 110%
- residual activity [39]: 96.2%
- residual activity [40]: 85.4%
- residual activity [41]: 58.8%
- residual activity [42]: 95.8%
